In PubChem BioAssay (NCI):
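Values below derive from 48-hour exposures of cells grown in 96-well plates, with endpoints linearly interpolated between the two concentrations bracketing the appropriate inhibition level. TGI: total growth inhibition.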

Experiments:
Test in all cases: inhibition of tumour cell growth, NCI panel, 48 h
[1] = test system: CAKI-1 renal
[2] = test system: HCT-116 colon
[3] = test system: HL-60(TB) leukemia
[4] = test system: SW-620 colon
[5] = test system: EKVX NSCLC
[6] = test system: LOX IMVI melanoma
[7] = test system: OVCAR-5 ovarian
[8] = test system: SK-OV-3 ovarian
[9] = test system: HT29 colon
[10] = test system: UACC-257 melanoma
[11] = test system: NCI-H226 lung
[12] = test system: SK-MEL-2 melanoma
[13] = test system: M19-MEL melanoma
[14] = test system: DLD-1 colon
[15] = test system: SF-295 CNS
[16] = test system: SF-268 CNS
[17] = test system: MOLT-4 leukemia
[18] = test system: OVCAR-8 ovarian
[19] = test system: A549 NSCLC
[20] = test system: HCC-2998 colon
[21] = test system: OVCAR-3 ovarian
[22] = test system: SNB-78 CNS
[23] = test system: SR leukemia
[24] = test system: SNB-19 CNS
[25] = test system: UO-31 renal
[26] = test system: HOP-62 NSCLC
[27] = test system: 786-0 renal
[28] = test system: KM20L2 colon
[29] = test system: K-562 leukemia
[30] = test system: SK-MEL-5 melanoma
[31] = test system: LXFL 529 NSCLC
[32] = test system: CCRF-CEM leukemia
[33] = test system: NCI-H460 lung
[34] = test system: ACHN renal
[35] = test system: DMS 273 small cell lung
[36] = test system: M14 melanoma
[37] = test system: MALME-3M melanoma
[38] = test system: NCI-H522 lung
[39] = test system: SN12C renal
[40] = test system: IGROV1 ovarian
[41] = test system: SNB-75 CNS
[42] = test system: SK-MEL-28 melanoma
[43] = test system: U251 CNS
[44] = test system: DMS 114 small cell lung
[45] = test system: TK-10 renal
[46] = test system: RPMI-8226 leukemia
[47] = test system: RXF 393 renal
[48] = test system: COLO 205 colon
[49] = test system: UACC-62 melanoma
[50] = test system: SF-539 CNS
[51] = test system: NCI-H23 lung
[52] = test system: HCT-15 colon
[53] = test system: HOP-92 NSCLC
[54] = test system: NCI/ADR-RES ovarian
[55] = test system: MDA-MB-231 breast
[56] = test system: T-47D breast
[57] = test system: BT-549 breast
[58] = test system: OVCAR-4 ovarian
[59] = test system: A498 renal
[60] = test system: MDA-MB-435
[61] = test system: PC-3 prostate
[62] = test system: MCF7 breast
[63] = test system: MDA-N
[64] = test system: HS 578T breast
[65] = test system: KM12 colon
[66] = test system: DU-145 prostate
[67] = test system: XF 498 CNS

Measured: TGI

O=C(CN(c1ccccc1)c1ccccc1)n1nnc2ccccc21
55.2 µM: [25]
48.6 µM: [13]
96 µM: [12]
85.7 µM: [44]
59.1 µM: [38]
84.7 µM: [2]
69.3 µM: [30]
70.3 µM: [6]
not listed: [53] | [54] | [55] | [56] | [57] | [58] | [59] | [60] | [61] | [62] | [63] | [64] | [65] | [66] | [67]
> 100 µM: all other assays above

C#C[C@]1(O)CC[C@H]2[C@@H]3CCC4=C/C(=N/OC(=O)c5cccc6c(=O)c7ccccc7[nH]c56)CC[C@@H]4[C@H]3CC[C@@]21C
39.1 µM: [32]
33.2 µM: [23]
38.1 µM: [17]
39.8 µM: [3]
84.1 µM: [38]
59 µM: [29]
45.8 µM: [30]
54 µM: [46]
77.1 µM: [48]
91.1 µM: [56]
not listed: [13] | [14] | [22] | [28] | [31] | [35] | [44] | [67]
> 100 µM: all other assays above

COc1cc(/C=C(\C#N)c2ccccc2)cc(OC)c1
73.7 µM: [15]
79.7 µM: [29]
51 µM: [10]
58.6 µM: [17]
65.4 µM: [6]
not listed: [18] | [35] | [41] | [47] | [53] | [54] | [55] | [56] | [57] | [59] | [60] | [61] | [62] | [63] | [64] | [66]
> 100 µM: all other assays above
